Assay results taken from ChEMBL document CHEMBL1158571, “Antiplasmodial lanostanes from the Ganoderma lucidum mushroom” (J Nat Prod, 2010).
Active and inactive are the calls of the source. No cut-off for these calls is given here.

System: Plasmodium falciparum
Test: Antiplasmodial activity against Plasmodium falciparum at 20 uM
Type: functional, organism-based

| SMILES | Activity |
| --- | --- |
| C/C(=C/CC[C@@H](C)[C@H]1CC[C@@]2(C)C3=C(CC[C@]12C)[C@@]1(C)CCC(=O)C(C)(C)[C@@H]1CC3=O)C(=O)O | inactive |
| CC(C)=CCC/C(C)=C/CCC(C(=O)O)c1cc2cc(O)ccc2o1 (stereo not drawn) | inactive |

System: Plasmodium falciparum
Test: Antiplasmodial activity against Plasmodium falciparum
Type: functional, organism-based

| SMILES | IC50 |
| --- | --- |
| C/C(=C/C(O)C[C@@H](C)[C@H]1CC[C@@]2(C)C3=CC[C@H]4C(C)(C)C(O)CC[C@]4(C)C3=CC[C@]12C)C(=O)O (stereo partly drawn) | 11 µM |
| C/C(=C/CC[C@@H](C)[C@H]1CC[C@@]2(C)C3=CC[C@H]4C(C)(C)C(=O)CC[C@]4(C)C3=CC[C@]12C)C(=O)O [GANODERIC ACID S] | 11 µM |
| C/C(=C\CC[C@@H](C)[C@H]1C[C@@H](O)[C@@]2(C)C3=CC[C@H]4C(C)(C)C(=O)CC[C@]4(C)C3=CC[C@]12C)C(=O)O [GANODERIC ACID TR 1] | 18 µM |
| C/C(=C/CC[C@@H](C)[C@H]1C[C@H](O)[C@@]2(C)C3=CC[C@H]4C(C)(C)C(=O)CC[C@]4(C)C3=CC[C@]12C)C(=O)O [GANODERIC ACID TR] | 20 µM |
| C/C(C=O)=C/CC[C@@H](C)[C@H]1C[C@H](O)[C@@]2(C)C3=CC[C@H]4C(C)(C)C(=O)CC[C@]4(C)C3=CC[C@]12C [GANODERIC ALDEHYDE TR] | 6 µM |
| C[C@H](CC[C@@H](O)C(C)(C)O)[C@H]1CC[C@@]2(C)C3=CC[C@H]4C(C)(C)C(=O)CC[C@]4(C)C3=CC[C@]12C [GANODERMANONDIOL] | 13 µM |
